PubChem BioAssay (NCI)
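Results reflect a 48-hour exposure of cells in 96-well plates to compound at five concentrations. At the GI50, growth is halved. TGI denotes the concentration required for complete inhibition of growth.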

Columns and labels:
Experiment in all cases: NCI tumour cell line growth inhibition, 48 h
M14 melanoma = test system: M14 melanoma
NCI-H460 lung = test system: NCI-H460 lung
TK-10 renal = test system: TK-10 renal
DU-145 prostate = test system: DU-145 prostate
A549 NSCLC = test system: A549 NSCLC
SW-620 colon = test system: SW-620 colon
NCI-H23 lung = test system: NCI-H23 lung
RPMI-8226 leukemia = test system: RPMI-8226 leukemia
MCF7 breast = test system: MCF7 breast
HCT-116 colon = test system: HCT-116 colon
HS 578T breast = test system: HS 578T breast
MDA-MB-435 = test system: MDA-MB-435
SN12C renal = test system: SN12C renal
SF-295 CNS = test system: SF-295 CNS
UACC-62 melanoma = test system: UACC-62 melanoma
NCI/ADR-RES ovarian = test system: NCI/ADR-RES ovarian
HT29 colon = test system: HT29 colon
MALME-3M melanoma = test system: MALME-3M melanoma
OVCAR-5 ovarian = test system: OVCAR-5 ovarian
K-562 leukemia = test system: K-562 leukemia
CCRF-CEM leukemia = test system: CCRF-CEM leukemia
HCT-15 colon = test system: HCT-15 colon
KM12 colon = test system: KM12 colon
SF-539 CNS = test system: SF-539 CNS
IGROV1 ovarian = test system: IGROV1 ovarian
CAKI-1 renal = test system: CAKI-1 renal
PC-3 prostate = test system: PC-3 prostate
SNB-19 CNS = test system: SNB-19 CNS
NCI-H226 lung = test system: NCI-H226 lung
COLO 205 colon = test system: COLO 205 colon
NCI-H522 lung = test system: NCI-H522 lung
SK-MEL-2 melanoma = test system: SK-MEL-2 melanoma
HCC-2998 colon = test system: HCC-2998 colon
SK-MEL-5 melanoma = test system: SK-MEL-5 melanoma
UACC-257 melanoma = test system: UACC-257 melanoma
SK-MEL-28 melanoma = test system: SK-MEL-28 melanoma
A498 renal = test system: A498 renal
ACHN renal = test system: ACHN renal
MDA-MB-231 breast = test system: MDA-MB-231 breast
MOLT-4 leukemia = test system: MOLT-4 leukemia
U251 CNS = test system: U251 CNS
T-47D breast = test system: T-47D breast
SNB-75 CNS = test system: SNB-75 CNS
SF-268 CNS = test system: SF-268 CNS
HOP-62 NSCLC = test system: HOP-62 NSCLC
SR leukemia = test system: SR leukemia
BT-549 breast = test system: BT-549 breast
RXF 393 renal = test system: RXF 393 renal
OVCAR-3 ovarian = test system: OVCAR-3 ovarian
UO-31 renal = test system: UO-31 renal
SK-OV-3 ovarian = test system: SK-OV-3 ovarian
786-0 renal = test system: 786-0 renal
OVCAR-4 ovarian = test system: OVCAR-4 ovarian
LOX IMVI melanoma = test system: LOX IMVI melanoma
HL-60(TB) leukemia = test system: HL-60(TB) leukemia

## C/C(=N\Nc1cc(C)c2cc(C)ccc2n1)c1ccccn1
M14 melanoma
  GI50: 68.4 nM
  TGI: 1320 nM
NCI-H460 lung
  GI50: 187 nM
  TGI: 1220 nM
TK-10 renal
  TGI: 2820 nM
DU-145 prostate
  GI50: 73.7 nM
  TGI: 4800 nM
A549 NSCLC
  GI50: < 49 nM
  TGI: 1140 nM
SW-620 colon
  TGI: 1980 nM
NCI-H23 lung
  GI50: 139 nM
  TGI: 10200 nM
RPMI-8226 leukemia
  GI50: 79 nM
  TGI: 1960 nM
MCF7 breast
  GI50: 86.6 nM
  TGI: 1160 nM
HCT-116 colon
  GI50: < 49.7 nM
  TGI: 1360 nM
HS 578T breast
  GI50: 1160 nM
  TGI: 6870 nM
MDA-MB-435
  GI50: 145 nM
  TGI: 1790 nM
SN12C renal
  GI50: 60.7 nM
  TGI: 4120 nM
SF-295 CNS
  TGI: 278 nM
UACC-62 melanoma
  GI50: 79.4 nM
  TGI: 375 nM
NCI/ADR-RES ovarian
  GI50: 66.6 nM
  TGI: 3850 nM
HT29 colon
  GI50: < 40.7 nM
  TGI: 1650 nM
MALME-3M melanoma
  GI50: 123 nM
  TGI: 1270 nM
OVCAR-5 ovarian
  TGI: 2080 nM
K-562 leukemia
  GI50: 95 nM
  TGI: 1430 nM
CCRF-CEM leukemia
  GI50: < 27.6 nM
  TGI: 356 nM
HCT-15 colon
  TGI: 1930 nM
KM12 colon
  GI50: 77.2 nM
  TGI: 1790 nM
SF-539 CNS
  GI50: 57.3 nM
  TGI: 263 nM
IGROV1 ovarian
  TGI: 425 nM
CAKI-1 renal
  TGI: 261 nM
PC-3 prostate
  TGI: 2320 nM
SNB-19 CNS
  GI50: 145 nM
  TGI: 13700 nM
NCI-H226 lung
  GI50: 36.6 nM
  TGI: 1050 nM
COLO 205 colon
  GI50: < 20.1 nM
  TGI: 1170 nM
NCI-H522 lung
  GI50: < 47.2 nM
  TGI: 124 nM
SK-MEL-2 melanoma
  GI50: 70.6 nM
  TGI: 10800 nM
HCC-2998 colon
  GI50: < 50.1 nM
  TGI: 1470 nM
SK-MEL-5 melanoma
  GI50: 82.7 nM
  TGI: 1270 nM
UACC-257 melanoma
  GI50: 81.8 nM
  TGI: 312 nM
SK-MEL-28 melanoma
  GI50: 135 nM
  TGI: 1770 nM
A498 renal
  GI50: 134 nM
  TGI: 3680 nM
ACHN renal
  GI50: < 42.4 nM
  TGI: 1140 nM
MDA-MB-231 breast
  GI50: < 30.3 nM
  TGI: 1540 nM
MOLT-4 leukemia
  TGI: 361 nM
U251 CNS
  GI50: < 39.3 nM
  TGI: 1160 nM
T-47D breast
  GI50: < 46.4 nM
  TGI: 1460 nM
SNB-75 CNS
  GI50: 205 nM
  TGI: 2180 nM
SF-268 CNS
  GI50: 47 nM
  TGI: 1620 nM
HOP-62 NSCLC
  GI50: 55 nM
  TGI: 1410 nM
SR leukemia
  GI50: < 31 nM
  TGI: 491 nM
BT-549 breast
  GI50: 276 nM
  TGI: 17200 nM
RXF 393 renal
  GI50: 113 nM
  TGI: 1530 nM
OVCAR-3 ovarian
  GI50: < 20.6 nM
  TGI: 1310 nM
UO-31 renal
  GI50: < 44.7 nM
  TGI: 322 nM
SK-OV-3 ovarian
  GI50: 74.3 nM
  TGI: 7210 nM
786-0 renal
  GI50: 105 nM
  TGI: 1270 nM
OVCAR-4 ovarian
  GI50: 30.3 nM
  TGI: 367 nM
LOX IMVI melanoma
  GI50: 74.4 nM
  TGI: 1230 nM
HL-60(TB) leukemia
  GI50: < 43.1 nM
  TGI: 129 nM
